The values that follow come from paper PMC9967645, “OAT3 Participates in Drug–Drug Interaction between Bentysrepinine and Entecavir through Interactions with M8—A Metabolite of Bentysrepinine—In Rats and Humans In Vitro” (Molecules, 2023).

Each structure is given as a SMILES string. Several values for one entry are separate records, joined by “and”; a condition that tells them apart may be missing. Equal entries are not always repeated. Where two headings read alike, the source gives them in different places.

The nature of data set [1]: Renal excretion study in rats (cumulative urinary excretion, renal clearance). It counts as in vivo, Sprague–Dawley (SD) rats. The settings on record: for CL renal: Sprague-Dawley, rat, urine, iv, read-out: CLR (renal clearance) (converted). Here is the method: To investigate the effects of PRO on the renal excretion of Y101 and its metabolites, rats received an intravenous dose of Y101 (25 mg/kg) or Y101 + PRO (25 mg/kg for Y101 and 100 mg/kg for PRO) via the caudal vein. In order to verify the DDI between Y101 and ETV in renal excretion, rats received an intravenous dose of Y101 (25 mg/kg) and/or ETV (0.06 mg/kg) by caudal vein.
[…] Subsequently, urine samples were stored at −70 °C until analysis. The cumulative urinary excretion and renal clearance (CLR) were calculated as previously described.
Biological samples were prepared as previously described.

A further data set concerns the target T1, hOAT3 (Homo sapiens, UniProt Q8TCC7).
T1 sequence (Q8TCC7 1-542): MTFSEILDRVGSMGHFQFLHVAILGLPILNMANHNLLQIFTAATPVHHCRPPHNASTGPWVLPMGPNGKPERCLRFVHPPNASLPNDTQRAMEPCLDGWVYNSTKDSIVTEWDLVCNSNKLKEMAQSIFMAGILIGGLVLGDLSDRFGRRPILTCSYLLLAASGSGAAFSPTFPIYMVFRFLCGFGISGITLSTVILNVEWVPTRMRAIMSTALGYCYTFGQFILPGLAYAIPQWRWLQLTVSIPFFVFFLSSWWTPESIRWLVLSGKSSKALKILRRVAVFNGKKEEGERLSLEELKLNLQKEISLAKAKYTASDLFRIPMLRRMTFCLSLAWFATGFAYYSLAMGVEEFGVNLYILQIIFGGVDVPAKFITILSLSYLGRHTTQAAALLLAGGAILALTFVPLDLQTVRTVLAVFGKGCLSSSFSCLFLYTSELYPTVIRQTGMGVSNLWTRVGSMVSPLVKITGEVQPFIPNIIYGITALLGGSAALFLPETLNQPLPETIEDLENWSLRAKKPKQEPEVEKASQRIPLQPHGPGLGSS
Nature of the data set: In vitro uptake assay in hOAT3-HEK293 cells. The note with it: M8 10 µM; for inhibition of the uptake of ETV in hOAT3-HEK293 cells / substrate of hOAT3 (uptake in hOAT3-HEK293 vs mock-HEK293 cells): Y101 2.0 µM; for substrate of hOAT3 (uptake in hOAT3-HEK293 vs mock-HEK293 cells): ES 10 µM. As for the experimental part:
The hOAT1-HEK293, hOAT3-HEK293 and mock cells were cultured in Dulbecco modified Eagle medium (DMEM) containing 10% fetal bovine serum (FBS) and 1% penicillin/streptomycin in an atmosphere of 5% CO2 air at 37 °C. The HEK293 cells were plated on 24-well plates at a density of 5 × 10^5 cells/well. […] Uptake assay was initiated by adding 1 mL of the transporter buffer containing Y101, M8, ETV or probe substrate. Following incubation with gentle shaking, the uptake was terminated at designated time by removing the transporter buffer and washing cells three times with 1 mL of ice-cold HBSS. Next, substrates of Y101, M8, ETV, PAH and ES in cell monolayer were released by lysing the cells with 0.3 mL of 0.1% Triton X-100 for 2 h and determined by liquid chromatography–tandem mass spectrometry (LC–MS/MS). In the time-course uptake assay, Y101 (2.0 µM) and M8 (10 µM) in the presence or absence of PRO (100 µM) were measured in hOAT1-HEK293, hOAT3-HEK293 and mock cells. The concentration-dependent uptake of M8 was determined in hOAT3-HEK293 cells, and incubation time (5 min) was optimized. The uptake of M8 (10 µM) with or without ETV was examined in hOAT3-HEK293 cells. The uptake of ETV (10 µM) with or without Y101 or M8 was also measured in hOAT1-HEK293 and hOAT3-HEK293 cells, respectively. Furthermore, PAH and ES at concentrations of 10 µM were used as positive control in hOAT1-HEK293 and hOAT3-HEK293 cells, respectively. Protein concentrations were measured by the bicinchoninic acid procedure (Solarbio, Beijing, China) using bovine serum albumin as the standard.
Biological samples were prepared as previously described. Aliquots (50 µL) of urine, plasma, kidney homogenates, or cell lysates were individually mixed with 150 µL methanol and 50 µL working solution of internal standard (acetaminophen or bestatin), followed by vortexing for 1 min and centrifuging at 13,800 g for 10 min. […] The resulting supernatant (1 µL) was subjected to LC-MS/MS for the assessment of Y101, M8, M9 and ETV, respectively. […] The concentrations of ETV, Y101, M8 and M9 were determined by an AB QTRAP 5500 LC–MS/MS System (Foster City, CA, USA) as previously described. Chromatographic separation was achieved on an Infinitylab Poroshell 120 EC-C18 (50 mm × 2.1 mm, 2.7 µm, Agilent Technology Inc., CA, USA) at 40 °C. The mobile phase consisted of formic acid-acetonitrile (0.05:100, v/v) and a mixture of 1 mmol-ammonium acetate-acetonitrile-formic acid (95:5:0.05, v/v/v) at a flow rate of 0.3 mL/min. […] Analyst1.5.2 software was used for data processing and analysis.

[2] abbreviates: 25 mg/kg, i.v. Y101 25 mg/kg + PRO 100 mg/kg.
[3] abbreviates: 25 mg/kg, i.v. Y101 25 mg/kg alone (Table 1, control of PRO study).
Setting [4] is: 25 mg/kg, i.v. Y101 25 mg/kg alone (Table 2, control of ETV study).
Setting [5] is: i.v. Y101 25 mg/kg + ETV 0.06 mg/kg.
The mark [6] stands for this setting: i.v. Y101 25 mg/kg + ETV 0.06 mg/kg, at 30 h post-dose.
The mark [7] stands for this setting: i.v. Y101 25 mg/kg + PRO 100 mg/kg, 0 to 48 h.

For `CN(C)CCOc1ccc(CC(NC(=O)c2ccccc2)C(=O)O)cc1` (stereo not shown) [M8], the CL renal in data set [1] (setting [2]) is 82.7 mL/min/kg; in data set [1] (setting [3]) it was 100 mL/min/kg; in data set [1] (setting [4]), 115 mL/min/kg; in data set [1] (setting [5]), 106 mL/min/kg. Further, the “cumulative excretion in the urine” value in data set [1] (setting [6]) is recorded as 59.7 ± 5.78 % of the dose. The cumulative urinary excretion in data set [1] (setting [7]) was 56.3 ± 3.00%; in data set [1] (i.v. Y101 25 mg/kg alone, at 48 h post-dose), 68.1 ± 6.97 % of the dose and 68.1 % of the dose. Further, the “inhibition of the uptake of ETV in hOAT3-HEK293 cells” value against hOAT3 (ETV 10 µM) is given as “not inhibited”. Further, on hOAT3, the “substrate of hOAT3 (uptake in hOAT3-HEK293 vs mock-HEK293 cells)” value is listed as “substrate of hOAT3”.

Consider `CN(C)CCOc1ccc(C[C@H](NC(=O)c2ccccc2)C(=O)N[C@H](CO)Cc2ccccc2)cc1.Cl` [Y101, N-[N-benzoyl-O-(2-dimethylaminoethyl)-l-tyrosyl]-l-phenylalaninol hydrochloride], for which the CL renal was 5.28 mL/min/kg in data set [1] (setting [2]), 6.1 mL/min/kg in data set [1] (setting [3]), 7.18 mL/min/kg in data set [1] (setting [4]) and 7.93 mL/min/kg in data set [1] (setting [5]). Moreover, in data set [1] (setting [6]), the “cumulative excretion in the urine” value is 4.48 ± 0.742 % of the dose. Also, the cumulative urinary excretion in data set [1] (setting [7]) is 3.59 ± 0.526%; in data set [1] (i.v. Y101 25 mg/kg alone, at 48 h post-dose, 25 mg/kg), 4.16 ± 0.843 % of the dose and 4.16 % of the dose. For the same compound, the “inhibition of the uptake of ETV in hOAT3-HEK293 cells” value on hOAT3 (ETV 10 µM) was “not inhibited”. Moreover, the “substrate of hOAT3 (uptake in hOAT3-HEK293 vs mock-HEK293 cells)” value on hOAT3 is listed as “not a substrate of hOAT1 or hOAT3”.

For `C=C1[C@H](CO)[C@@H](O)C[C@@H]1n1cnc2c(=O)[nH]c(N)nc21` [ETV, entecavir], the CL renal in data set [1] (0.06 mg/kg, i.v. ETV 0.06 mg/kg alone) is 36.2 mL/min/kg; in data set [1] (setting [5]) it was 33.3 mL/min/kg. Besides, the “cumulative excretion in urine” value in data set [1] (i.v. ETV 0.06 mg/kg alone, at 30 h post-dose) amounted to 33.4 ± 1.55%. For the same compound, the “inhibition of the uptake of M8 in hOAT3-HEK293 cells” value on hOAT3 (PRO 100 µM, ETV 10 µM) is recorded as “inhibited the uptake of M8”.
